{"source": "patent US6303751A", "about": "“Human metabotropic glutamate receptor and related DNA compounds” (Eli Lilly and Company, priority 1995, dated 2001)", "key": {"control AV12 cells": {"system": "control AV12 cells", "assay": "PI hydrolysis in control AV12 cells (PI assay)", "type": "cell-based", "conditions": "quisqualate 10 μM", "protocol": "(§1) PI hydrolysis in clonal cell lines of AV12/pRS121 cells was measured in response to glutamate agonists as a functional assay for metabotropic glutamate receptor activity according to Schoepp, 11 TiPS 508 (1990).\n(§2) Twenty-four-well tissue-culture vessels were seeded with approximately 250,000 cells per well in D-MEM (in the absence of glutamic acid) which contained […] and 10% dialyzed fetal calf serum. Four microcuries of ^3 H-myoinositol were then added to each well and the cultures were incubated for 48 hours at 37° C. The wells were then rinsed with serum-free medium which contained 10 mM LiCl and 10 mM myoinositol. Some wells were then exposed to medium with glutamate agonists for one hour at 37° C., and some wells were at the same time exposed to medium without glutamate agonists for one hour at 37° C.\n(§3) The reactions were terminated by removing the media and adding 0.5 ml acetone-methanol (1:1). The cells were then incubated at 4° C. for 20 minutes. The acetone-methanol solutions were recovered from the wells and were placed into centrifuge tubes. […]\n(§4) Labeled phosphoinositides were eluted from the cartridges with 4 ml of a solution which contained: 0.1 M ammonium formate; 0.1 M formic acid and 5 mM sodium tetraborate. […] Scintillation counting fluid (Ready Solv HP) was added to the vials and the radioactivity was determined in a Beckmann Scintillation Counter."}, "[1]": {"system": "HSmGluR1 receptor (human metabotropic glutamate receptor) in AV12/pRS121 cells", "assay": "PI hydrolysis in AV12/pRS121 cells (PI assay)", "type": "cell-based", "conditions": "10 μM, one hour at 37° C.", "protocol": "as §1, §2, §3, §4"}}}
{"smiles": "N[C@@H](Cn1oc(=O)[nH]c1=O)C(=O)O", "note": "[quisqualate]", "values": [{"measurement": "increase in PI hydrolysis over basal levels", "setting": "control AV12 cells", "result": "No increase"}, {"measurement": "increase in PI hydrolysis over the basal level", "setting": "[1]", "result": "200 to 300", "unit": "%"}]}
